Measurements from patent publication US6265423A, “Aromatic polycyclic retinoid-type derivatives, method for preparing same, and use thereof for making pharmaceutical and cosmetic compositions” (priority 1996, dated 2001).

How the values were obtained:
[1] = test system: ZR-75-1 human mammary cancer cells; experiment: MTT test, proliferation of ZR-75-1; assay type: cell-based; conditions: for activity at 100 µM / activity at 1 µM / activity at 0.01 µM: Homo sapiens, 72 h, control = 100%, read-out: level of proliferation; for activity at 100 µM: ZR-75-1, 10^-4 M; for activity at 1 µM: ZR-75-1, 10^-6 M; for activity at 0.01 µM: ZR-75-1, 10^-8 M; for effect on cellular increase, ZR-75-1 (in words): MTT test
Description: (§1) The cells that were cultured came from the ATCC (American Type Culture Collection).
(§2) The cellular lines are kept in culture in a monolayer at 37° C. in closed culture dishes (Nunc. Gibco BRL, Life Technologies, Belgium) containing the minimum essential medium (MEM, Gibco) supplemented with 5% of Foetal Calf Serum, (FCS, Gibco), 0.6 mg/ml of glutamine (Gibco) and a mixture of 200 IU/mi of penicillin (Gibco), 200 μg/ml of streptomycin (Gibco) and 0.1 mg/ml of gentamycin (Gibco). The foetal calf serum is decomplemented for 1 hour at 56° C.
(§3) This test is based on the mitochondrial reduction by living metabolically active cells of the MTT (3-(4,5-dimethylthiazol-2-yl)-2,5-diphenyltetrazolium bromide) of yellowish colour into a blue coloured product, formazan. The quantity of formazan obtained is directly proportional to the number of living cells. After incubation of the cells for 24 hours in microplates with 96 flat bottomed wells, the culture medium is replaced by 100 μl of fresh culture medium containing the drug to be tested.
(§4) The microplates are then incubated for 3 hours at 37° C. and centrifuged for 10 minutes at 400 g (GPR centrifuge, Beckman). The MTT solution is replaced by 100 μl of dimethylsulphoxide (Merck). The microplates are agitated (Vari-Shaker, Dynatech) for 10 minutes.
(§5) In the microplates, the control cells like the treated cells were incubated in a medium without the compounds to be tested for 24 hours. The control cells are incubated in a medium without a drug throughout the whole experiment, while the treated cells are incubated in different media. These media contain the molecule to be tested at various concentrations: 10^-8 M, 10^-6 M and 10^-4 M. All the tests are carried out in 6 duplicates.
(§6) The statistical comparisons are carried out according to the Fisher Test:
(§7) The mean optical density measured for each experimental condition is expressed as a percentage in relation to the laid down control condition being equal to 100%.

[2] = test system: T-47D human mammary cancer cells; experiment: MTT test, proliferation of T-47D; assay type: cell-based; conditions: for activity at 100 µM / activity at 1 µM / activity at 0.01 µM: Homo sapiens, T47D, T-47D, 72 h, control = 100%, read-out: level of proliferation; for activity at 100 µM: 10^-4 M; for activity at 1 µM: 10^-6 M; for activity at 0.01 µM: 10^-8 M; for effect on cellular increase, T-47D (in words): MTT test
Description: as §1, §2, §3, §4, §5, §6, §7

[3] = test system: A549 human pulmonary cancer cells; experiment: MTT test, proliferation of A549; assay type: cell-based; conditions: Homo sapiens, 72 h, control = 100%, read-out: level of proliferation; for activity at 100 µM: A549, 10^-4 M; for activity at 1 µM: A549, 10^-6 M; for activity at 0.01 µM: A549, 10^-8 M
[4] = test system: A-427 human pulmonary cancer cells; experiment: MTT test, proliferation of A-427; conditions: for activity at 0.01 µM / activity at 1 µM / activity at 100 µM: Homo sapiens, A-427, 72 h, read-out: level of proliferation; for effect on cellular increase, A-427 (in words): MTT test

SMILES: Cc1cc2c(cc1/C=C(\c1ccc(C(=O)O)cc1)C(F)(F)F)C(C)(C)CCC2(C)C [CB62899, (E) 4-[1-trifluoromethyl-2-(5,6,7,8-tetrahydro-3,5,5,8,8-pentamethyl-2-naphthalenyl)-1-ethenyl]benzoic acid]
- activity at 100 µM [1]: 0.4%
- activity at 1 µM [1]: 112%
- activity at 0.01 µM [1]: 112%
- activity at 100 µM [2]: 1.7%
- activity at 1 µM [2]: 73.7%
- activity at 0.01 µM [2]: 128%
- activity at 100 µM [3]: 0.45%
- activity at 1 µM [3]: 119%
- activity at 0.01 µM [3]: 131%
- activity at 0.01 µM [4]: 115%
- activity at 1 µM [4]: 124%
- activity at 100 µM [4]: 0%

SMILES: C/C(=C/c1ccc2c(c1)C(C)(C)CCS2(=O)=O)c1ccc(C(=O)O)cc1 [CB72484]
- activity at 100 µM [1]: 129%
- activity at 1 µM [1]: 138%
- activity at 0.01 µM [1]: 145%
- activity at 100 µM [2]: 99%
- activity at 1 µM [2]: 128%
- activity at 0.01 µM [2]: 129%
- activity at 100 µM [3]: 129%
- activity at 1 µM [3]: 111%
- activity at 0.01 µM [3]: 114%
- activity at 0.01 µM [4]: 131%
- activity at 1 µM [4]: 130%
- activity at 100 µM [4]: 182%

SMILES: C/C(=C\c1ccc2c(c1)C(C)(C)CCS2(=O)=O)c1ccc(-c2nnn[nH]2)cc1 [CB15068, (E) 5-[4-[1-(3',4'-dihydro-4'4'-dimethyl-1',1'-dioxide-2'H-1'-benzothiopyran-6'-yl)-2-propenyl]phenyl]-1H-tetrazole]
- activity at 100 µM [1]: 59.3%
- activity at 1 µM [1]: 99.9%
- activity at 0.01 µM [1]: 99.2%
- effect on cellular increase, ZR-75-1 (in words) [1]: do not influence the cellular increase of the lineages under consideration
- activity at 100 µM [2]: 32.2%
- activity at 1 µM [2]: 87.8%
- activity at 0.01 µM [2]: 101%
- effect on cellular increase, T-47D (in words) [2]: do not influence the cellular increase of the lineages under consideration
- activity at 100 µM [3]: 81.8%
- activity at 1 µM [3]: 97.3%
- activity at 0.01 µM [3]: 92.7%
- activity at 0.01 µM [4]: 88.5%
- activity at 1 µM [4]: 98%
- activity at 100 µM [4]: 24.3%

SMILES: Cc1cc2c(cc1C(=O)c1ccc(C(=O)Nc3ccc(O)cc3)cc1)C(C)(C)CCC2(C)C [CB81616]
- activity at 100 µM [1]: 0%
- activity at 1 µM [1]: 134%
- activity at 0.01 µM [1]: 136%
- activity at 100 µM [2]: 1.4%
- activity at 1 µM [2]: 96.7%
- activity at 0.01 µM [2]: 103%

SMILES: Cc1cc2c(cc1/C=C(\c1ccc(-c3nnn[nH]3)cc1)C(F)(F)F)C(C)(C)CCC2(C)C [CB63237, (E) 5-[4-[1-trifluoromethyl-2-(5,6,7,8-tetrahydro-3,5,5,8,8-pentamethyl-2-naphthalenyl)-1-ethenyl]phenyl]-1H-tetrazole]
- activity at 100 µM [1]: 0%
- activity at 1 µM [1]: 106%
- activity at 0.01 µM [1]: 86.5%
- activity at 100 µM [2]: 4.1%
- activity at 1 µM [2]: 125%
- activity at 0.01 µM [2]: 120%
- activity at 100 µM [3]: 2.1%
- activity at 1 µM [3]: 140%
- activity at 0.01 µM [3]: 124%
- activity at 0.01 µM [4]: 88.1%
- activity at 1 µM [4]: 148%
- activity at 100 µM [4]: 4.1%

SMILES: C/C(=C/c1ccc2c(c1)C(C)(C)CCS2(=O)=O)c1ccc(-c2nnn[nH]2)cc1 [CB39122, (Z) 5-[4-[1-(3',4'-dihydro-4',4'-dimethyl-1',1'-dioxide-2'H-1'-benzothiopyran-6'-yl)-2-propenyl]phenyl]-1H-tetrazole]
- activity at 100 µM [1]: 74.2%
- activity at 1 µM [1]: 97.3%
- activity at 0.01 µM [1]: 102%
- activity at 100 µM [2]: 57.1%
- activity at 1 µM [2]: 100%
- activity at 0.01 µM [2]: 102%
- activity at 100 µM [3]: 84.8%
- activity at 1 µM [3]: 98%
- activity at 0.01 µM [3]: 96.2%
- activity at 0.01 µM [4]: 93.9%
- activity at 1 µM [4]: 96.5%
- activity at 100 µM [4]: 27.1%

SMILES: C/C(=C\c1ccc2c(c1)C(C)(C)CCS2(=O)=O)c1ccc(C(=O)O)cc1 [CB39356]
- activity at 100 µM [1]: 59.6%
- activity at 1 µM [1]: 148%
- activity at 0.01 µM [1]: 133%
- effect on cellular increase, ZR-75-1 (in words) [1]: do not influence the cellular increase of the lineages under consideration
- activity at 100 µM [2]: 36.4%
- activity at 1 µM [2]: 108%
- activity at 0.01 µM [2]: 86%
- effect on cellular increase, T-47D (in words) [2]: do not influence the cellular increase of the lineages under consideration
- activity at 100 µM [3]: 72%
- activity at 1 µM [3]: 105%
- activity at 0.01 µM [3]: 105%
- activity at 0.01 µM [4]: 124%
- activity at 1 µM [4]: 129%
- activity at 100 µM [4]: 70.7%
- effect on cellular increase, A-427 (in words) [4]: a stimulation of the cellular increase

SMILES: C/C(=C/c1ccc2c(c1)C(C)(C)CCS2)c1ccc(C(=O)O)cc1 [CB41666]
- activity at 100 µM [1]: 48.5%
- activity at 1 µM [1]: 115%
- activity at 0.01 µM [1]: 112%
- activity at 100 µM [2]: 28%
- activity at 1 µM [2]: 69.5%
- activity at 0.01 µM [2]: 88.7%
- activity at 100 µM [3]: 63.2%
- activity at 1 µM [3]: 89.9%
- activity at 0.01 µM [3]: 94.5%
- activity at 0.01 µM [4]: 83%
- activity at 1 µM [4]: 91.2%
- activity at 100 µM [4]: 7.6%

SMILES: CCCCCCCOc1cc2c(cc1/C(C)=C/c1ccc(C(=O)O)cc1)C(C)(C)CCS2(=O)=O [CB65757]
- activity at 100 µM [1]: 1%
- activity at 1 µM [1]: 118%
- activity at 0.01 µM [1]: 116%
- activity at 100 µM [2]: 0%
- activity at 1 µM [2]: 126%
- activity at 0.01 µM [2]: 124%
- activity at 100 µM [3]: 0%
- activity at 1 µM [3]: 111%
- activity at 0.01 µM [3]: 108%
- activity at 0.01 µM [4]: 106%
- activity at 1 µM [4]: 146%
- activity at 100 µM [4]: 0%

SMILES: C/C(=C\c1cc2c(cc1C)C(C)(C)CCC2(C)C)c1ccc(-c2nnn[nH]2)cc1 [CB40747, (E) 5-[4-[1-(5,6,7,8-tetrahydro-3,5,5,8,8-pentamethyl-2-naphthalenyl)-2-propenyl]phenyl]-1H-tetrazole]
- activity at 100 µM [1]: 0%
- activity at 1 µM [1]: 107%
- activity at 0.01 µM [1]: 111%
- activity at 100 µM [2]: 0%
- activity at 1 µM [2]: 85.2%
- activity at 0.01 µM [2]: 106%
- activity at 100 µM [3]: 0%
- activity at 1 µM [3]: 192%
- activity at 0.01 µM [3]: 176%
- activity at 0.01 µM [4]: 100%
- activity at 1 µM [4]: 83.7%
- activity at 100 µM [4]: 1.7%
- effect on cellular increase, A-427 (in words) [4]: a stimulation of the cellular increase

SMILES: COc1cc2c(cc1/C(C)=C/c1ccc(C(=O)O)cc1)C(C)(C)CCS2(=O)=O [CB77787]
- activity at 100 µM [1]: 93.5%
- activity at 1 µM [1]: 113%
- activity at 0.01 µM [1]: 114%
- activity at 100 µM [2]: 86.3%
- activity at 1 µM [2]: 120%
- activity at 0.01 µM [2]: 129%
- activity at 100 µM [3]: 103%
- activity at 1 µM [3]: 125%
- activity at 0.01 µM [3]: 118%
- activity at 0.01 µM [4]: 120%
- activity at 1 µM [4]: 110%
- activity at 100 µM [4]: 163%

SMILES: C/C(=C/c1cc2c(cc1C)C(C)(C)CCC2(C)C)c1ccc(C(=O)O)cc1 [CB32706]
- activity at 100 µM [1]: 0.7%
- activity at 1 µM [1]: 93.1%
- activity at 0.01 µM [1]: 95%
- activity at 100 µM [2]: 0%
- activity at 1 µM [2]: 88.6%
- activity at 0.01 µM [2]: 94%
- activity at 100 µM [3]: 6%
- activity at 1 µM [3]: 103%
- activity at 0.01 µM [3]: 101%
- activity at 0.01 µM [4]: 103%
- activity at 1 µM [4]: 99.6%
- activity at 100 µM [4]: 0.8%

SMILES: C/C(=C\c1ccc2c(c1)C(C)(C)CCS2)c1ccc(C(=O)O)cc1 [CB12994]
- activity at 100 µM [1]: 31.8%
- activity at 1 µM [1]: 126%
- activity at 0.01 µM [1]: 121%
- activity at 100 µM [2]: 1.8%
- activity at 1 µM [2]: 51.8%
- activity at 0.01 µM [2]: 67.6%
- activity at 100 µM [3]: 53.2%
- activity at 1 µM [3]: 89%
- activity at 0.01 µM [3]: 92.1%
- activity at 0.01 µM [4]: 107%
- activity at 1 µM [4]: 93.6%
- activity at 100 µM [4]: 4.4%

SMILES: C=C(c1ccc(C(=O)Nc2ccc(O)cc2)cc1)c1cc2c(cc1C)C(C)(C)CCC2(C)C [CB65801]
- activity at 100 µM [1]: 0.2%
- activity at 1 µM [1]: 93.4%
- activity at 0.01 µM [1]: 138%
- activity at 100 µM [2]: 1.6%
- activity at 1 µM [2]: 62.7%
- activity at 0.01 µM [2]: 92.8%
